Laboratory results published in patent publication US20250127689A1, “METHOD OF STIMULATING DENTIN FORMATION WITH HYDROXY-SUBSTITUTED AZOBENZENE MATERIALS” (The Regents of the University of Colorado, a body corporate, priority 2022, published 2025).

Legend:
[1] = system: exposed dental pulp of maxillary first molar; test: Pulp exposure (class I cavity) in maxillary first molar, H&E histology of sections four weeks after treatment; format: in vivo, C57BL/6J mice; conditions: mice
Experimental: (§1) In order to test this hypothesis, a class I cavity extending into the dentin and almost to the pulp was prepared on the occlusal surface of the maxillary first molar after anesthesia in five to six week old C57BL/6J mice. The cavity was prepared using a 0.3-0.5 millimeter diameter carbide bur. An endodontic hand file with a tip diameter of 0.06-0.10 millimeter was used to create a mechanical break in the thin dentin overlying the dental pulp, thereby creating a cavity that included exposed dentin and exposed pulp.
(§2) For the control group of mice, after hemostasis, a one-step, dual-cure, self-etching bonding agent (SCOTCHBOND™ Universal Adhesive; 3M ESPE, St. Paul, Minnesota, USA) was applied to exposed dentin according to the manufacturer's instructions and cured for 20-40 seconds using a dental curing light operated at 420-480 nanometers and 1200-2000 milliwatts/centimeter^2. ProRoot™ MTA (Mineral Trioxide Aggregate) root canal repair material (Dentsply Sirona, Tulsa Dental Specialties, Johnson City, Tennessee, USA) was prepared according to manufacturer's instructions by mixing powder and liquid components in equal proportions to form a dough. The dough was packed over the exposed pulp according to manufacturer's instructions. The cavity was then sealed with FILTEK™ Supreme Ultra Universal Restorative (3M ESPE, St. Paul, Minnesota, USA), which was applied to the cured adhesive and the root canal repair material, then cured for 20-40 seconds using a dental curing light operated at 420-480 nanometers and 1200-2000 milliwatts/centimeter^2.
For the test group of mice, after hemostasis, a one-step, dual-cure, self-etching bonding agent (SCOTCHBOND™ Universal Adhesive; 3M ESPE, St. Paul, Minnesota, USA) was applied to exposed dentin according to the manufacturer's instructions and cured for 20-40 seconds using a dental curing light operated at 420-480 nanometers and 1200-2000 milliwatts/centimeter^2. Prior to being applied, the AHA solution was divided into two parts of equal volume to mix in the photoinitiators and the redox (self-cure) initiator components. […]

[2] = system: exposed dental pulp of maxillary first molar; test: Pulp exposure (class I cavity) in maxillary first molar, microCT of maxilla six weeks after treatment; format: in vivo, C57BL/6J mice; conditions: mice, six weeks after dental procedure; longitudinal section, cured restorative removed before imaging
Experimental: as §1
as §2, with “The cavity was then sealed with FILTEK™ Supreme Ultra Universal Restorative (3M ESPE, St. Paul, Minnesota, USA), which was applied to the cured adhesive and the root canal repair material, then cured for 20-40 seconds using a dental curing light operated at 420-480 nanometers and 1200-2000 milliwatts/centimeter^2.” left out

## C=CC(=O)Oc1ccccc1N=Nc1ccccc1O [AHA, 2-Acryloyloxy-2′-hydroxy-azobenzene]
[1]
  appearance of gingiva around the site of application (inflammation, dysplasia): healthy without any signs of inflammation or dysplasia
[1]; 2.5 to 12.5 micrograms AHA per restoration applied to exposed pulp, light-cured under FILTEK restorative
  formation of dentinal bridge at the site of pulp exposure (H&E stained sections): closed by formation of a dentinal bridge generated by reparative dentin formation
[1]; H&E sections
  state of dental pulp by microscopy (vitality, inflammation, dysplastic changes): vital pulp without any evidence of chronic or acute inflammation or dysplastic changes
[2]
  formation of a calcified dentinal bridge at the pulp exposure site (microCT): pulp exposure site closed by a calcified dentinal bridge
